# Reference: patent US20250195653A1, “MULTIFUNCTIONAL NATURAL KILLER (NK) CELL ENGAGER COMBINATION THERAPY FOR TREATING HEMATOLOGICAL NEOPLASTIC DISORDERS” (SANOFI, priority 2023, published 2025)
# “Also recorded” adds a separate entry of the source.
# Tests used:
# MOLM-13 RFP AML cells = experiment: Incucyte in vitro killing assay with NK effector cells, E:T 1:1; assay type: cell-based; details: CD123 NKCE 5 ng/mL, AZA 600 nM or VEN 2 nM
# Description: MOLM-13 RFP cells were generated by infecting MOLM-13 (DSMZ, ACC: 554) with the Incucyte® Nuclight Red Lentivirus (Sartorius #4476) to express a nuclear-restricted mKate2 (red fluorescent protein, RFP). MOLM-13 RFP cells were harvested in the same culture medium used for wild-type cells with the addition of 1 μg/mL of puromycin (Gibco, ref #A11138-03) to maintain the selection pressure.
# Human NK cells were purified from PBMCs using MACSxpress® Whole Blood NK Cell Isolation Kit (Miltenyi, ref #130-127-695) according to supplier recommendations. […]
# Cytotoxicity was evaluated using the Incucyte live-cells analysis system which allows to quantify the number of live fluorescent target cells over time.
# First, 50 μL of CD123 NKCE and its isotype control were distributed in the appropriate wells of an F-bottom (flat-bottom) 96-well plate coated with poly-D-lysine (Greiner BioOne ref #655946). CD123 NKCE was tested at 5 ng/mL, while its isotype was evaluated at the highest concentration of 100 ng/ml. […]
# The growth/proliferation of MOLM-13 RFP tumor cells was monitored by cell imaging up to 64 h using the Incucyte® S3 with standard scans every 4 h. […] Tumor cells growth/proliferation was calculated by counting the number of red cells at each time point, which was then normalized to the number of cells at time zero and expressed as a percentage.
# NKp46 on NK cells = experiment: NKp46 expression on NK cells by flow cytometry; assay type: cell-based, human; details: 1 μM AZA or 1 nM VEN
# Description: (§1) Human NK cells were purified from PBMCs using MACSxpress® Whole Blood NK Cell Isolation Kit (Miltenyi, ref #130-127-695) according to supplier recommendations. NK cells were then cultured in complete medium at 5×10^6 cells/mL at +37° C. at 5% CO2 (so called “resting” NK cells) overnight before being used in the activation assay.
# (§2) Following the proper timing of incubation (from 6 h to 72 h), 0.05×10^6 cells/well MOLM-13 and NK cells in 96-well round bottom plates (Corning® Costar® Ultra-Low Attachment Multiple 96-Well Plate; Thermo Scientific, Denmark, ref #7007) were centrifuged at 300 g for 5 minutes at RT. Supernatant was aspirated and Tampon Running Buffer (Miltenyi, ref #130-091-2221) or the antibodies were added to the cell pellets (50 μL/well). In addition, 1 μL of each antibody was used to stain the compensation beads. The cells and the beads were incubated for 20 minutes at 4° C. Two consecutive washing steps were performed by adding 150 and then 200 μL of Tampon Running Buffer in the wells followed by centrifugation at 300 g for 5 minutes at 4° C.
# (§3) Finally, 100 μL/well of PBS were added before reading the plate by MACSQuant Analyzer 16 Flow Cytometer. The propidium iodide (PI) marker of viability was added to every well reading at 1/10 dilution.
# CD16a on NK cells = experiment: CD16a expression on NK cells by flow cytometry; assay type: cell-based, human; details: 1 μM AZA or 1 nM VEN
# Description: as §1, §2, §3
# CD123 on MOLM-13 cells = experiment: CD123 expression on MOLM-13 cells by flow cytometry; assay type: cell-based; details: for CD123 expression level (MedFI) on MOLM-13 cells: 0.01 nM to 10 μM; for CD123 expression (median fluorescence intensity) on MOLM-13 cells: 1 nM and 1 μM, 6 h, 24 h or 48 h, MOLM-13 alone or with NK cells from two donors; for CD123 target expression on MOLM-13 AML tumor cells (conclusion): at the tested concentrations, up to 6 days of treatment
# Description: as §2, §3
# (§4) Finally, NK cell at effector:target (E:T) ratio of 1:1 (thus 0.05×10^6 cells/well) were incubated with MOLM-13 cell line at 37° C. in the presence of 5% CO2. After 6 h, 24 h, or 48 h, plates were centrifuged at 300 g for 5 minutes at RT. The Tampon Running Buffer or the selected antibodies were added to the cell pellets (50 μL/well) to assess cell viability and to perform the flow cytometry-based staining.
# MOLM-13 cells = experiment: MOLM-13 cell viability over 72 h and 6 days with AZA or VEN (flow cytometry); assay type: cell-based
# Description: as §2, §3
# [1] = system: CD123-positive MOLM-13 AML cell line; experiment: 5-azacytidine and venetoclax flow cytometry cytotoxic assay, 48 h; assay type: cell-based
# Description: The MOLM-13 cell line (DSMZ ACC 554) is an acute myeloid leukemia cell line. These cells are mostly round cells growing in suspension. For maintenance, cells were resuspended in fresh RPMI1640 medium supplemented with 10% Fetal Bovin Serum (FBS; Biowest, ref #S140H-100) and 2 mM L-Glutamine (Gibco, ref #25030-024) referred as complete culture medium at 0.3×10^6 cells/mL for 3 or 4 days.
# On the day of the assay, the product was thawed and vortexed to eliminate potential aggregates before cascade dilution. A first dilution of 1/100 was performed in complete culture medium. Then, a dilution range from 20 μM (twice concentrated) to 20 pM (1/10 serial dilution) was performed in complete culture medium to assess the concentration-dependent effect of the single agent.
# Similarly, stock solution of VEN was stored in complete culture medium at 4° C. On the day of the assay, the product was vortexed to eliminate potential aggregates before cascade dilution. A dilution range from 20 μM (twice concentrated) to 20 pM (1/10 serial dilution) was performed in complete culture medium to assess the concentration-dependent effect of the single agent.
# (§5) Of these serial dilutions 100 μL of VEN (single agent) was added to each well that contains 100 μL of cell suspension to obtain a final concentration of 10, 1, 0.1, 0.01, 0.001, 0.0001, 0.00001 μM in a final volume of 200 μL/well.
# CD123-positive MOLM-13 target cells were counted the day of the assay and the amount of cell needed for the experiment was evaluated. Target cells were seeded at 0.05×10^6 cells/50 μL of complete culture medium per well.
# In the meantime, compound seral dilutions or the four defined concentrations were prepared and added to a U-bottom 96-well plate (100 μL/well). As controls, target cells alone without drugs, were cultured at the same concentration in complete culture medium (200 μL/well). Each condition was performed in monoplicate.
# Culture plates were incubated at 37° C. in the presence of 5% CO2 for 48 h. The plates were centrifuged at 300 g for 5 minutes at RT and resuspended in 100 μL of PBS to the following reading by MACSQuant Analyzer 16 Flow. The marker of viability PI was added to every well reading at dilution 1/10.
# NK cells [2] = experiment: NK cell phenotype in the presence of AZA or VEN; assay type: cell-based, human; details: AZA or VEN at defined concentrations (1 μM AZA, 1 nM VEN, 48 h)
# Description: as §1, §2, §3
# NK cells [3] = experiment: NK cell viability after treatment with AZA or VEN; assay type: cell-based, human; details: 0.01 nM to 10 μM, 48 h, 3 independent NK donors
# Description: as §1, §5
# Following the proper timing of incubation (from 6 h to 72 h), 0.05×10^6 cells/well MOLM-13 and NK cells in 96-well round bottom plates (Corning® Costar® Ultra-Low Attachment Multiple 96-Well Plate; Thermo Scientific, Denmark, ref #7007) were centrifuged at 300 g for 5 minutes at RT. Supernatant was aspirated and Tampon Running Buffer (Miltenyi, ref #130-091-2221) or the antibodies were added to the cell pellets (50 μL/well). In addition, 1 μL of each antibody was used to stain the compensation beads. The cells and the beads were incubated for 20 minutes at 4° C. […]
# as §3
# [4] = system: CD123-positive MOLM-13 cells; experiment: 5-azacytidine and venetoclax cytotoxic assays in the absence or presence of NK cells (6 h, 24 h, 48 h); assay type: cell-based; details: VEN 1 μM
# Description: as §4
# [5] = cited from earlier work
# [6] = at the dose of 400 mg; cited from earlier work
smiles,measurement,setting,value
"Nc1ncn([C@@H]2O[C@H](CO)[C@@H](O)[C@H]2O)c(=O)n1 [AZA, 4-amino-1-beta-D-ribofuranosyl-s-triazin-2 (1H)-one]","target cell lysis, single agent",MOLM-13 RFP AML cells,increased target cell lysis; also recorded: some target lysis
same,NKp46 expression level on NK cells,NKp46 on NK cells,no impact
same,CD16a expression level on NK cells,CD16a on NK cells,no impact
same,CD123 expression level (MedFI) on MOLM-13 cells,CD123 on MOLM-13 cells; 48 h,minimal impact
same,CD123 expression (median fluorescence intensity) on MOLM-13 cells,CD123 on MOLM-13 cells,did not impact
same,CD123 median of fluorescence intensity (MedFI) on MOLM-13 cells,"CD123 on MOLM-13 cells; AZA at 1 and 10 μM, 48 h",slight decrease
same,CD123 target expression on MOLM-13 AML tumor cells (conclusion),CD123 on MOLM-13 cells,minimal impact
same,MOLM-13 cell viability,MOLM-13 cells; AZA 600 nM and 3 μM,did not affect
same,MOLM-13 AML cell viability,"[1]; AZA at high concentration (10 μM), 48 h",strongly decreased; also recorded: cytotoxic activity
same,MOLM-13 AML cell viability,"[1]; AZA at lower concentrations, 48 h, compared to non-treated control",No effect
same,impact on NK cell phenotype,NK cells [2],minimal impact
same,NK cell viability,NK cells [3],did not negatively impact; also recorded: no cytotoxic effect
CC1(C)CCC(CN2CCN(c3ccc(C(=O)NS(=O)(=O)c4ccc(NCC5CCOCC5)c([N+](=O)[O-])c4)c(Oc4cnc5[nH]ccc5c4)c3)CC2)=C(c2ccc(Cl)cc2)C1 [VEN],"target cell lysis, single agent",MOLM-13 RFP AML cells,increased target cell lysis; also recorded: some target lysis
same,NKp46 expression level on NK cells,NKp46 on NK cells,no impact
same,CD16a expression level on NK cells,CD16a on NK cells,no impact
same,killing potential on MOLM-13 cells,[4],enhanced killing potential
same,impact on MOLM-13 cell viability,[4]; 6 h,no impact
same,impact on MOLM-13 cell viability,[4]; 24 h,moderate
same,impact on MOLM-13 cell viability,[4]; 48 h,strong impact
same,CD123 expression level (MedFI) on MOLM-13 cells,CD123 on MOLM-13 cells; 48 h,mild reduction
same,CD123 expression (median fluorescence intensity) on MOLM-13 cells,CD123 on MOLM-13 cells,did not impact
same,CD123 target expression on MOLM-13 AML tumor cells (conclusion),CD123 on MOLM-13 cells,minimal impact
same,aqueous solubility,[5],very low
same,MOLM-13 viability,"MOLM-13 cells; VEN 2, 5 and 10 nM",impacted MOLM-13 viability mainly after 6 days
same,"MOLM-13 cell viability, concentration-dependent response","[1]; VEN 0.01 nM to 10 μM, 48 h",impact on MOLM-13 cell viability from 10 nM to 10 μM
same,killing activity as a single agent,"[1]; VEN at its plasma concentration, 2 μM",very strong killing activity
same,plasma concentration,[6],2000 nM
same,impact on NK cell phenotype,NK cells [2],minimal impact
same,NK cell viability,NK cells [3],did not negatively impact; also recorded: no cytotoxic effect
